Test results published in US12162890B2 (Novartis AG, priority 2015, dated 2024).

Target: HEK293 cells with stable expression of the GRIN1 gene and tetracycline-inducible expression of the GRIN2B gene (NMDA receptor, NR2B) (Homo sapiens, UniProt Q13224)
Assay: Fluo-8 Ca2+ flux assay: reversal of Ro 25-6981-mediated suppression of the Ca2+ response to co-agonist (glutamate/glycine); also: test concentration or dose not given here
Format: cell-based
Settings: reversal of the Ro 25-6981 suppression of the Ca2+ response to co-agonist (glutamate/glycine)

HEK293 cells with stable expression of the GRIN1 gene and tetracycline-inducible expression of the GRIN2B gene (NMDA receptor, NR2B), sequence (Q13224 27-1484, other chains not shown): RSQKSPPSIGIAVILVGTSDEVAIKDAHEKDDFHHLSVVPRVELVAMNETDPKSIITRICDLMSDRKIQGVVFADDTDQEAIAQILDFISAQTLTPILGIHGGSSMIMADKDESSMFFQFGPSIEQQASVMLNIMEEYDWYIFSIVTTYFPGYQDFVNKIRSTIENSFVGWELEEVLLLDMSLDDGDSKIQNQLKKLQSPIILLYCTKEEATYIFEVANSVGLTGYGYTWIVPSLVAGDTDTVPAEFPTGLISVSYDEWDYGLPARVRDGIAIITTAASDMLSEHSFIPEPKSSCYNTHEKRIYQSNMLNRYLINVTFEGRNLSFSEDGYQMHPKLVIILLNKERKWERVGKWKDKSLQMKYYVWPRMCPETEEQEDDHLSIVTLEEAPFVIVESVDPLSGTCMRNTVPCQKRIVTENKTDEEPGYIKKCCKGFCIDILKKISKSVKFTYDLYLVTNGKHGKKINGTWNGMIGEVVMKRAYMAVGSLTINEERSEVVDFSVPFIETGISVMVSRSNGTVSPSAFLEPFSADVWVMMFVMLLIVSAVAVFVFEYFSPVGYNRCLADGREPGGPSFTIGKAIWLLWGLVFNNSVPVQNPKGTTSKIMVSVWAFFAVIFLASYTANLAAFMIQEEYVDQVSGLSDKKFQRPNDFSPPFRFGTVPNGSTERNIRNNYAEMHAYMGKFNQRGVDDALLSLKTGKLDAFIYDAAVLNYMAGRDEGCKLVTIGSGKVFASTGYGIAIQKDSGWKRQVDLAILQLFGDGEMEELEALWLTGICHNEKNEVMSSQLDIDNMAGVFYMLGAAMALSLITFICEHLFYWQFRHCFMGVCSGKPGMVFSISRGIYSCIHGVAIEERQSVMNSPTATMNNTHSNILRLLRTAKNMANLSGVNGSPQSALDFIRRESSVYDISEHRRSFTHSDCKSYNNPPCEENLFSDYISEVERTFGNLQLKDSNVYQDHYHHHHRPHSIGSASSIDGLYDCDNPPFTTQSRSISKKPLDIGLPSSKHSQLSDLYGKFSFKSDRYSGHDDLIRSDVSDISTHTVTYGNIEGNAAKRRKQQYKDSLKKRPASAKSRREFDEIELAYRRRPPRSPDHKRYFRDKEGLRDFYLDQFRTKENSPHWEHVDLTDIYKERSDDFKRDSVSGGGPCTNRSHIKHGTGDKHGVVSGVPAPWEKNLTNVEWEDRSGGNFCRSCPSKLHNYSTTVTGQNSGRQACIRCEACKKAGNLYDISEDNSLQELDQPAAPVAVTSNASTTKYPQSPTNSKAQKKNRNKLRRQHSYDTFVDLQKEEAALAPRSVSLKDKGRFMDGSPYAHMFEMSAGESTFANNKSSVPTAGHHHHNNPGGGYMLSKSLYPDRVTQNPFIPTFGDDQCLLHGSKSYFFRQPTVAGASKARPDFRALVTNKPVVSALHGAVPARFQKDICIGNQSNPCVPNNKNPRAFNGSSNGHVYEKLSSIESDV

Row | SMILES | Response Recovered (%)
1 | COCn1cc(-c2ccc(F)c(C(F)(F)F)c2)c2c(=O)n(CC(=O)N3CC(F)C(F)C3)ccc21 (centres unmarked) [Example 242, 5-(2-(3,4-difluoropyrrolidin-1-yl)-2-oxoethyl)-3-(4-fluoro-3-(trifluoromethyl)phenyl)-1-(methoxymethyl)-1H-pyrrolo[3,2-c]pyridin-4(5H)-one] | 110
2 | O=C(Cn1ccc2c(c(-c3ccc(F)c(C(F)(F)F)c3)cn2-c2ncccn2)c1=O)N1CCC(F)C1 (centres unmarked) [Example 243, 3-(4-fluoro-3-(trifluoromethyl)phenyl)-5-(2-(3-fluoropyrrolidin-1-yl)-2-oxoethyl)-1-(pyrimidin-2-yl)-1H-pyrrolo[3,2-c]pyridin-4(5H)-one] | 96
3 | O=C(Cn1ccc2c(c(-c3ccc(F)c(C(F)(F)F)c3)cn2-c2ccncn2)c1=O)N1CCC(F)C1 (centres unmarked) [Example 244, 3-(4-fluoro-3-(trifluoromethyl)phenyl)-5-(2-(3-fluoropyrrolidin-1-yl)-2-oxoethyl)-1-(pyrimidin-4-yl)-1H-pyrrolo[3,2-c]pyridin-4(5H)-one] | 110
4 | CN(C)CCn1cc(-c2ccc(F)c(Cl)c2)c2c(=O)n(CC(=O)N3CCC(F)C3)ccc21 (centres unmarked) [Example 245, 3-(3-chloro-4-fluorophenyl)-1-(2-(dimethylamino)ethyl)-5-(2-(3-fluoropyrrolidin-1-yl)-2-oxoethyl)-1H-pyrrolo[3,2-c]pyridin-4(5H)-one] | 14
5 | COCn1cc(-c2ccc(F)c(Cl)c2)c2c(=O)n(CC(=O)N3CCC(F)C3)ccc21 (centres unmarked) [Example 246, 3-(3-chloro-4-fluorophenyl)-5-(2-(3-fluoropyrrolidin-1-yl)-2-oxoethyl)-1-(methoxymethyl)-1H-pyrrolo[3,2-c]pyridin-4(5H)-one] | 34
6 | Cn1cc(-c2ccc(F)c(Cl)c2)c2c(=O)n(CC(=O)N3CCC(F)C3)ccc21 (centres unmarked) [Example 247, 3-(3-chloro-4-fluorophenyl)-5-(2-(3-fluoropyrrolidin-1-yl)-2-oxoethyl)-1-methyl-1H-pyrrolo[3,2-c]pyridin-4(5H)-one] | 51
7 | O=C(Cn1ccc2c(c(-c3ccc(F)c(Cl)c3)cn2-c2ccncn2)c1=O)N1CCC(F)C1 (centres unmarked) [Example 248] | 59
8 | COCn1cc(-c2ccc(Cl)c(Cl)c2)c2c(=O)n(CC(=O)N3CCC(F)C3)ccc21 (centres unmarked) [Example 249, 3-(3,4-dichlorophenyl)-5-(2-(3-fluoropyrrolidin-1-yl)-2-oxoethyl)-1-(methoxymethyl)-1H-pyrrolo[3,2-c]pyridin-4(5H)-one] | 70
9 | Cn1cc(-c2ccc(Cl)c(Cl)c2)c2c(=O)n(CC(=O)N3CCC(F)C3)ccc21 (centres unmarked) [Example 250, 3-(3,4-dichlorophenyl)-5-(2-(3-fluoropyrrolidin-1-yl)-2-oxoethyl)-1-methyl-1H-pyrrolo[3,2-c]pyridin-4(5H)-one] | 62
10 | Cn1cc(-c2ccc(F)c(C(F)(F)F)c2)c2c(=O)n(CC(=O)N3CCC(F)C3)ccc21 (centres unmarked) [Example 251] | 61
11 | O=C(Cn1ccc2c(c(-c3ccc(F)c(C(F)(F)F)c3)cn2CCF)c1=O)N1CCC(F)C1 (centres unmarked) [Example 252, 3-(4-fluoro-3-(trifluoromethyl)phenyl)-1-(2-fluoroethyl)-5-(2-(3-fluoropyrrolidin-1-yl)-2-oxoethyl)-1H-pyrrolo[3,2-c]pyridin-4(5H)-one] | 96
12 | O=C(Cn1ccc2c(c(-c3ccc(F)c(Cl)c3)cn2CCF)c1=O)N1CCC(F)C1 (centres unmarked) [Example 253, 3-(3-chloro-4-fluorophenyl)-1-(2-fluoroethyl)-5-(2-(3-fluorpyrrolidin-1-yl)-2-oxoethyl)-1H-pyrrolo[3,2-c]pyridin-4(5H)-one] | 66
13 | COCn1cc(-c2ccc(F)c(Cl)c2)c2c(=O)n(CC(=O)N3CC(C)(F)C3)ccc21 [Example 254, 3-(3-chloro-4-fluorophenyl)-5-(2-(3-fluoro-3-methylazetidin-1-yl)-2-oxoethyl)-1-(methoxymethyl)-1,5-dihydro-4H-pyrrolo[3,2-c]pyridin-4-one] | 140
14 | NC(=O)Cn1ccc2[nH]cc(-c3ccc(F)c(Cl)c3)c2c1=O [Example 255, 2-(3-(3-chloro-4-fluorophenyl)-4-oxo-1H-pyrrolo[3,2-c]pyridin-5(4H)-yl)acetamide] | −1
15 | O=C(Cn1ccc2c(c(-c3ccc(F)c(C(F)(F)F)c3)cn2CCO)c1=O)N1CCC(F)C1 (centres unmarked) [Example 256, 3-(4-fluoro-3-(trifluoromethyl)phenyl)-5-(2-(3-fluoropyrrolidin-1-yl)-2-oxoethyl)-1-(2-hydroxyethyl)-1H-pyrrolo[3,2-c]pyridin-4(5H)-one] | 54
16 | CC(C)(O)Cn1cc(-c2ccc(F)c(C(F)(F)F)c2)c2c(=O)n(CC(=O)N3CCC(F)C3)ccc21 (centres unmarked) [Example 257, 3-(4-fluoro-3-(trifluoromethyl)phenyl)-5-(2-(3-fluoropyrrolidin-1-yl)-2-oxoethyl)-1-(2-hydroxy-2-methylpropyl)-1H-pyrrolo[3,2-c]pyridin-4(5H)-one] | 20
17 | CC(C)(O)Cn1cc(-c2ccc(F)c(C(F)(F)F)c2)c2c(=O)n(CC(=O)N3CC(F)C(F)C3)ccc21 (centres unmarked) [Example 258, 5-(2-(3,4-difluoropyrrolidin-1-yl)-2-oxoethyl)-3-(4-fluoro-3-(trifluoromethyl)phenyl)-1-(2-hydroxy-2-methylpropyl)-1H-pyrrolo[3,2-c]pyridin-4(5H)-one] | 13
18 | CC(C)(O)Cn1cc(-c2ccc(F)c(Cl)c2)c2c(=O)n(CC(=O)N3CCC(F)C3)ccc21 (centres unmarked) [Example 259, 3-(3-chloro-4-fluorophenyl)-5-(2-(3-fluoropyrrolidin-1-yl)-2-oxoethyl)-1-(2-hydroxy-2-methylpropyl)-1H-pyrrolo[3,2-c]pyridin-4(5H)-one] | 35
19 | O=C(Cn1ccc2c(c(-c3ccc(F)c(C(F)(F)F)c3)cn2CO)c1=O)N1CCC(F)C1 (centres unmarked) [Example 260, 3-(4-fluoro-3-(trifluoromethyl)phenyl)-5-(2-(3-fluoropyrrolidin-1-yl)-2-oxoethyl)-1-(hydroxymethyl)-1H-pyrrolo[3,2-c]pyridin-4(5H)-one] | 68
20 | O=C(Cn1ccc2c(c(-c3ccc(F)c(Cl)c3)cn2C2COC2)c1=O)N1CCC(F)C1 (centres unmarked) [Example 261, 3-(3-chloro-4-fluorophenyl)-5-(2-(3-fluoropyrrolidin-1-yl)-2-oxoethyl)-1-(oxetan-3-yl)-1H-pyrrolo[3,2-c]pyridin-4(5H)-one] | 29
21 | O=C(Cn1ccc2c(c(-c3ccc(F)c(C(F)(F)F)c3)cn2-c2ccnnc2)c1=O)N1CCC(F)C1 (centres unmarked) [Example 262, 3-(4-fluoro-3-(trifluoromethyl)-phenyl)-5-(2-(3-fluoropyrrolidin-1-yl)-2-oxoethyl)-1-(pyridazin-4-yl)-1H-pyrrolo[3,2-c]pyridin-4(5H)-one] | 44
22 | Cc1nnc(-n2cc(-c3ccc(F)c(C(F)(F)F)c3)c3c(=O)n(CC(=O)N4CCC(F)C4)ccc32)o1 (centres unmarked) [Example 263, 3-(4-fluoro-3-(trifluoromethyl)phenyl)-5-(2-(3-fluoropyrrolidin-1-yl)-2-oxoethyl)-1-(5-methyl-1,3,4-oxadiazol-2-yl)-1H-pyrrolo[3,2-c]pyridin-4(5H)-one] | 72
23 | Cc1nnc(-n2cc(-c3ccc(F)c(Cl)c3)c3c(=O)n(CC(=O)N4CCC(F)C4)ccc32)o1 (centres unmarked) [Example 264, 3-(3-chloro-4-fluorophenyl)-5-(2-(3-fluoropyrrolidin-1-yl)-2-oxoethyl)-1-(5-methyl-1,3,4-oxadiazol-2-yl)-1H-pyrrolo[3,2-c]pyridin-4(5H)-one] | 49
24 | O=C(Cn1ccc2c(c(-c3ccc(F)c(C(F)(F)F)c3)cn2C2COC2)c1=O)N1CCC(F)C1 (centres unmarked) [Example 265, 3-(4-fluoro-3-(trifluoromethyl)phenyl)-5-(2-(3-fluoropyrrolidin-1-yl)-2-oxoethyl)-1-(oxetan-3-yl)-1H-pyrrolo[3,2-c]pyridin-4(5H)-one] | 61
25 | Cn1cnc(-n2cc(-c3ccc(F)c(C(F)(F)F)c3)c3c(=O)n(CC(=O)N4CCC(F)C4)ccc32)n1 (centres unmarked) [Example 266, 3-(4-fluoro-3-(trifluoromethyl)phenyl)-5-(2-(3-fluoropyrrolidin-1-yl)-2-oxoethyl)-1-(1-methyl-1H-1,2,4-triazol-3-yl)-1H-pyrrolo[3,2-c]pyridin-4(5H)-one] | 95
26 | Cn1cc(-n2cc(-c3ccc(F)c(Cl)c3)c3c(=O)n(CC(=O)N4CCC(F)C4)ccc32)nn1 (centres unmarked) [Example 267, 3-(3-chloro-4-fluorophenyl)-5-(2-(3-fluoropyrrolidin-1-yl)-2-oxoethyl)-1-(1-methyl-1H-1,2,3-triazol-4-yl)-1H-pyrrolo[3,2-c]pyridin-4(5H)-one] | 27
27 | Cn1cnc(-n2cc(-c3ccc(F)c(C(F)(F)F)c3)c3c(=O)n(CC(=O)N4CC(C)(F)C4)ccc32)n1 [Example 268, 3-(4-fluoro-3-(trifluoromethyl)phenyl)-5-(2-(3-fluoro-3-methylazetidin-1-yl)-2-oxoethyl)-1-(1-methyl-1H-1,2,4-triazol-3-yl)-1H-pyrrolo[3,2-c]pyridin-4(5H)-one] | 52
28 | Cn1cnc(-n2cc(-c3ccc(F)c(Cl)c3)c3c(=O)n(CC(=O)N4CC(C)(F)C4)ccc32)n1 [Example 269, 3-(3-chloro-4-fluorophenyl)-5-(2-(3-fluoro-3-methylazetidin-1-yl)-2-oxoethyl)-1-(1-methyl-1H-1,2,4-triazol-3-yl)-1H-pyrrolo[3,2-c]pyridin-4(5H)-one] | 130
29 | Cn1cnc(-n2cc(-c3ccc(Cl)c(Cl)c3)c3c(=O)n(CC(=O)N4CC(C)(F)C4)ccc32)n1 [Example 270, 3-(3,4-dichlorophenyl)-5-(2-(3-fluoro-3-methylazetidin-1-yl)-2-oxoethyl)-1-(1-methyl-1H-1,2,4-triazol-3-yl)-1H-pyrrolo[3,2-c]pyridin-4(5H)-one] | 130
